These results are taken from patent US7563893B2, “3-Phenyl-cinnoline analogue and antitumor agent using the same” (Nippon Kayaku Kabushiki Kaisha, priority 2002, dated 2009).

≈ marks a conversion by molar mass, not a printed value.

Series [1] deals with mammary tumor cells, T-47D. Put plainly: Antitumor effect in vitro, proliferation inhibition, same condition as Test Example 1. The series is classed as cell-based. To be noted: Homo sapiens, T47D, 4000 cells. Here is the method: (§1) Each MCF-7, 2000 cells, and MDA-MB-453, 4000 cells, was inoculated using 10% serum added RPMI 1640 medium (Asahi Technoclass Inc.) into a 96 well plate. After incubating these cells at 37° C., under atmosphere of 5% CO2/95% air for 24 hours, each of the compounds of Examples 1, 2, 6, 9-13, 20, 24, 26, 27, 65, 66, 70, 71, 72 and 73 was added and incubated for further 3 days. Cells were stained with a 0.05% methylene blue solution and measured using a microplate reader (Benchmark Plus, Bio-Rad Laboratories) by absorption at 660 nm. Proliferation inhibition rate was calculated by the following equation, and 50% cell proliferation inhibitory concentrations of the compounds of Examples 1, 2, 6, 9-13, 20, 24, 26, 27, 65, 66, 70, 71, 72 and 73 were shown in Table 2. Proliferation inhibition rate=(1−absorbance with drug addition÷absorbance in control)×100
Further, a test was conducted by using 4000 mammary tumor cells, T-47D, by adding a compound of example 65 or 66 under the same condition hereinabove.

The subject of another series is Mammary tumor cell MCF-7. Put plainly: Antitumor effect in vitro, proliferation inhibition (methylene blue staining, absorption at 660 nm). The series is classed as cell-based. To be noted: MCF-7, 2000 cells, incubated 3 days with compound; for IC50: Homo sapiens, MCF7, 72 h, read-out: IC50 (50% cell proliferation inhibitory concentration), MCF-7. Here is the method: (§2) Antitumor Effect in vitro Using Mammary Tumor Cell MCF-7 and MDA-MB-453
as §1

For series [2], the system named is Mammary tumor cell MDA-MB-453. The description is as above. The settings on record: MDA-MB-453, 4000 cells, incubated 3 days with compound; for IC50: Homo sapiens, 72 h, read-out: IC50 (50% cell proliferation inhibitory concentration), MDA-MB-453. The series is classed as cell-based. The protocol: as §2, §1
The subject of series [3] is Mammary tumor cells ZR-75-1. Put plainly: Antitumor effect in vivo, subcutaneous tumor in nude mice. The settings on record: day 15 after initiating administration; oral 500 mg/kg once a day for 14 days; ZR-75-1 in female nude mice. The protocol:
Antitumor Effect in vivo Using Mammary Tumor Cell ZR-75-1
Mammary tumor cells ZR-75-1 were inoculated in dorsal subcutaneous region of female nude mice. The compound of example 66 and example 53 was administered orally at dose level of 500 mg/kg, once a day, for 14 days consecutively from the point of initiating logarithmic growth of tumor cells. Conjugate axis and transverse axis of tumor were measured in the time dependent manner, and tumor volume was calculated by the following equation. Relative tumor volume, wherein tumor volume at the time of initiating administration was set as 1, was calculated. Effectiveness was judged by value (T/C) wherein tumor volume in the treated group is divided by tumor volume in the control group. tumor volume=conjugate axis×conjugate axis×transverse axis/2

On to `CC1CC(=O)C2=C(C1)NN=C(c1cccc(C(F)(F)F)c1)C2` (stereo not drawn) [Example 65, 7-methyl-3-(3-trifluoromethylphenyl)-4,6,7,8-tetrahydro-1H-cinnolin-5-one], for which the IC50 in series [1] was determined as 0.67 µg/mL (≈ 2.17 µM); in the series with Mammary tumor cell MCF-7, 0.1 µg/mL (≈ 0.324 µM); in series [2], 1.64 µg/mL (≈ 5.32 µM).

As to `O=C1CC(c2ccccc2)Cc2nnc(-c3cccc(C(F)(F)F)c3)cc21` (stereo not drawn) [Example 1, 7-phenyl-3-(3-trifluoro-methylphenyl)-7,8-dihydro-6H-cinnolin-5-one], in the series with Mammary tumor cell MCF-7, the “IC50 (50% cell proliferation inhibitory concentration), MCF-7” value worked out at 0.0388 µg/mL (≈ 0.105 µM). Moreover, in series [2], the “IC50 (50% cell proliferation inhibitory concentration), MDA-MB-453” value was found to be 0.0395 µg/mL (≈ 0.107 µM).

In turn, `CC1Cc2nnc(-c3cccc(C(F)(F)F)c3)cc2C(OC(=O)[C@@H](N)C(C)C)C1.Cl.Cl` (stereo partly drawn) [Example 53, 5-(L-valyloxy)-7-methyl-3-(3-trifluoromethylphenyl)-5,6,7,8-tetrahydrocinnoline dihydrochloride] showed a melting point of 201 to 203 °C. For the same compound, in series [3], the “T/C value (tumor volume in treated group divided by control group)” value is on record as 34.0%.

`CC1Cc2nnc(-c3cccc(C(F)(F)F)c3)cc2C(O)C1` (racemic) [Example 6, 7-methyl-3-(3-trifluoromethylphenyl)-5,6,7,8-tetrahydrocinnolin-5-ol]: the results for the IC50 (in the series with Mammary tumor cell MCF-7; in series [2]) were 0.0499 µg/mL (≈ 0.162 µM) and 1.47 µg/mL (≈ 4.77 µM), respectively.

For the compound `CC1CC(=O)c2cc(-c3cccc(C(F)(F)F)c3)nnc2C1` (stereo not drawn) [Example 66, 7-methyl-3-(3-trifluoromethylphenyl)-7,8-dihydro-6H-cinnolin-5-one], the IC50 in series [1] was 0.28 µg/mL (≈ 0.914 µM); with Mammary tumor cell MCF-7, 0.05 µg/mL (≈ 0.163 µM); in series [2] it was 1.26 µg/mL (≈ 4.11 µM). For the same compound, the “T/C value (tumor volume in treated group divided by control group)” value in series [3] stood at 30.3%.

For the compound `CC1Cc2nnc(-c3cccc(C(F)(F)F)c3)cc2C(O)C1` (stereo not drawn) [Example 10, syn-(+)-7-methyl-3-(3-trifluoromethylphenyl)-5,6,7,8-tetrahydrocinnolin-5-ol], in the series with Mammary tumor cell MCF-7, the “IC50 (50% cell proliferation inhibitory concentration), MCF-7” value was 0.0982 µg/mL (≈ 0.319 µM). The “IC50 (50% cell proliferation inhibitory concentration), MDA-MB-453” value in series [2] amounted to 1.5400 µg/mL (≈ 5 µM).

As to `CC(C)(O)C1Cc2nnc(-c3cccc(C(F)(F)F)c3)cc2C(O)C1` (stereo not drawn) [Example 27, 7-(2-hydroxy-2-propyl)-3-(3-trifluoromethylphenyl)-5,6,7,8-tetrahydrocinnolin-5-ol], the IC50 was 0.271 µg/mL (≈ 0.769 µM) with Mammary tumor cell MCF-7 and 4.72 µg/mL (≈ 13.4 µM) in series [2].

The compound `CC(C)[C@H](N)C(=O)O[C@@H]1C[C@@H](C)Cc2nnc(-c3cccc(C(F)(F)F)c3)cc21.Cl.Cl` had a melting point of 181 to 185 °C.

Turning to `O=C1CCCc2c1cc(-c1cccc(C(F)(F)F)c1)n[n+]2[O-]` [Example 13, 5-oxo-1-oxy-3-(3-trifluoromethylphenyl)-7,8-dihydro-6H-cinnoline], in the series on Mammary tumor cell MCF-7, the “IC50 (50% cell proliferation inhibitory concentration), MCF-7” value was determined as 0.0671 µg/mL (≈ 0.218 µM). Further, the “IC50 (50% cell proliferation inhibitory concentration), MDA-MB-453” value in series [2] is 0.9510 µg/mL (≈ 3.09 µM).

`CC1Cc2nnc(-c3cccc(C(F)(F)F)c3)cc2C(O)C1` (stereo not drawn) [Example 9, syn-(−)-7-methyl-3-(3-trifluoromethylphenyl)-5,6,7,8-tetrahydrocinnolin-5-ol]: the “IC50 (50% cell proliferation inhibitory concentration), MCF-7” value with Mammary tumor cell MCF-7 worked out at 0.0772 µg/mL (≈ 0.25 µM). For the same compound, the “IC50 (50% cell proliferation inhibitory concentration), MDA-MB-453” value in series [2] came out at 0.3390 µg/mL (≈ 1.1 µM).

In the case of `COc1cc(C)cc2nnc(-c3cccc(C(F)(F)F)c3)cc12` [Example 71, 5-methoxy-7-methyl-3-(3-trifluoromethylphenyl)cinnoline], the IC50 with Mammary tumor cell MCF-7 is 0.158 µg/mL (≈ 0.496 µM); in series [2], 3.36 µg/mL (≈ 10.6 µM).

Consider `CCOC(=O)C1CC(=O)c2cc(-c3cccc(C(F)(F)F)c3)nnc2C1` (stereo not drawn) [Example 2, ethyl 5-oxo-3-(3-trifluoro-methylphenyl)-7,8-dihydro-6H-cinnoline-7-carboxylate], for which the “IC50 (50% cell proliferation inhibitory concentration), MCF-7” value in the series with Mammary tumor cell MCF-7 came to 1.9600 µg/mL (≈ 5.38 µM). Further, the “IC50 (50% cell proliferation inhibitory concentration), MDA-MB-453” value in series [2] is 1.5700 µg/mL (≈ 4.31 µM).

In the case of `CC(=O)OC1CC(C)Cc2nnc(-c3cccc(C(F)(F)F)c3)cc21` (stereo not drawn) [Example 11, 5-acetyloxy-7-methyl-3-(3-trifluoromethylphenyl)-5,6,7,8-tetrahydrocinnoline], the IC50 in the series on Mammary tumor cell MCF-7 stood at 0.0455 µg/mL (≈ 0.13 µM); in series [2], 0.848 µg/mL (≈ 2.42 µM).

As to `Cc1cc(OCc2ccccc2)c2cc(-c3cccc(C(F)(F)F)c3)nnc2c1` [Example 73, 5-benzyloxy-7-methyl-3-(3-trifluoromethylphenyl)cinnoline], the IC50 with Mammary tumor cell MCF-7 was found to be 0.399 µg/mL (≈ 1.01 µM); in series [2], 2.6 µg/mL (≈ 6.59 µM).

As to `CC1CC(=O)c2cc(-c3cccc(F)c3)nnc2C1` (stereo not drawn) [Example 24, 3-(3-fluorophenyl)-7-methyl-7,8-dihydro-6H-cinnolin-5-one], the values for the IC50 (with Mammary tumor cell MCF-7; in series [2]) were 3.57 µg/mL (≈ 13.9 µM) and 4.95 µg/mL (≈ 19.3 µM), respectively.

Consider `CC(=O)Oc1cc(C)cc2nnc(-c3cccc(C(F)(F)F)c3)cc12` [Example 72, 5-acetyloxy-7-methyl-3-(3-trifluoromethylphenyl)cinnoline], for which the IC50 came to 0.138 µg/mL (≈ 0.398 µM) in the series with Mammary tumor cell MCF-7 and 0.42 µg/mL (≈ 1.21 µM) in series [2].

Consider “7-benzyl-3-(3-trifluoromethylphenyl)-7,8-dihydro-6H-pyrido[3,4-c]-pyridazin-3-one [Example 26]”, for which, in the series with Mammary tumor cell MCF-7, the “IC50 (50% cell proliferation inhibitory concentration), MCF-7” value was 0.3610 µg/mL. The “IC50 (50% cell proliferation inhibitory concentration), MDA-MB-453” value in series [2] was determined as 8.9300 µg/mL.

For the compound `CC(C)[C@H](N)C(=O)O[C@H]1C[C@H](C)Cc2nnc(-c3cccc(C(F)(F)F)c3)cc21.Cl.Cl`, the melting point lay within 186 to 189 °C.

Take `CC(C)[C@H](N)C(=O)O[C@@H]1C[C@H](C)Cc2nnc(-c3cccc(C(F)(F)F)c3)cc21.Cl.Cl`: the melting point is 162 to 165 °C.

As to `Cc1cc(O)c2cc(-c3cccc(C(F)(F)F)c3)nnc2c1` [Example 70, 7-methyl-3-(3-trifluoromethylphenyl)cinnolin-5-ol], the IC50 turned out to be 0.181 µg/mL (≈ 0.595 µM) in the series with Mammary tumor cell MCF-7 and 0.551 µg/mL (≈ 1.81 µM) in series [2].

Consider `CC1CC(=O)c2cc(-c3cccc([N+](=O)[O-])c3)nnc2C1` (stereo not drawn) [Example 20, 7-methyl-3-(3-nitrophenyl)-7,8-dihydro-6H-cinnolin-5-one], for which the figures for the IC50 (in the series on Mammary tumor cell MCF-7; in series [2]) were 1.41 µg/mL (≈ 4.96 µM) and 9.35 µg/mL (≈ 33 µM), respectively.
